Here are results for nine molecules from patent US5075303A, “Pyridine derivatives” (John Wyeth & Brother Limited, priority 1989, dated 1991).

One assay concerns the target T1, 5-HT1A receptor (Rattus norvegicus, UniProt P19327).
T1 construct: rat hippocampal membrane homogenate; from tissue; host or cells: rat hippocampus (membrane homogenate)
T1 sequence (P19327 1-422): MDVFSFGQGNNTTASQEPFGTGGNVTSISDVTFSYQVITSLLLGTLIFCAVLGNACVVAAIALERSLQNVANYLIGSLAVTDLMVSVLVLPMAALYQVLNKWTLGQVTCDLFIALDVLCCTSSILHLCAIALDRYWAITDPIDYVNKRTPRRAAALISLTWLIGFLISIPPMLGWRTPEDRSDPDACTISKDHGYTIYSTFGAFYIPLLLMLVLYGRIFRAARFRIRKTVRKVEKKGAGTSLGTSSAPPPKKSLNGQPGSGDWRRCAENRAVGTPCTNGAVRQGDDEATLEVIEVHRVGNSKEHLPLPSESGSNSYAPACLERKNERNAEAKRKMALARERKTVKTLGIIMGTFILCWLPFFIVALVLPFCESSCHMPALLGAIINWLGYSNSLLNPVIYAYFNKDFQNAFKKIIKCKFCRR
Description: 5-HT1A receptor binding activity in rat hippocampal membrane homogenate. Here is the method: The compounds of the invention were tested for 5 HT1A receptor binding activity in rat hippocampal membrane homogenate by the method of B S Alexander and M D Wood, J Pharm Pharmacol, 1988, 40, 888-891.

For another assay, the target named is T2, 5-HT1 receptor (Rattus norvegicus, UniProt P19327).
T2 construct: 5-HT related behaviour in rats following i.v. administration; from tissue; host or cells: living rat (in vivo test, endogenous receptor)
T2 sequence (P19327 1-422): T1 sequence (P19327 1-422)
The assay is described as follows: 5-HT1 receptor agonist activity in vivo: 5-HT related behaviour in rats following i.v. administration. Conditions: iv, calculated by the method of Kimball et al. Here is the method:
The compounds are evaluated for 5-HT1 receptor agonist activity in vivo by a method involving the assessment of 5-HT related behaviour in rats following i.v. administration of the test compound (M D Tricklebank et al, European Journal of Pharmacol, 1985, 106, 271-282).

Another assay concerns the target T3, 5HT1A receptor (Cavia porcellus, UniProt A0A286Y074).
T3 construct: in the guinea-pig ileum in vitro; from tissue; host or cells: guinea-pig ileum
T3 sequence (A0A286Y074 1-421): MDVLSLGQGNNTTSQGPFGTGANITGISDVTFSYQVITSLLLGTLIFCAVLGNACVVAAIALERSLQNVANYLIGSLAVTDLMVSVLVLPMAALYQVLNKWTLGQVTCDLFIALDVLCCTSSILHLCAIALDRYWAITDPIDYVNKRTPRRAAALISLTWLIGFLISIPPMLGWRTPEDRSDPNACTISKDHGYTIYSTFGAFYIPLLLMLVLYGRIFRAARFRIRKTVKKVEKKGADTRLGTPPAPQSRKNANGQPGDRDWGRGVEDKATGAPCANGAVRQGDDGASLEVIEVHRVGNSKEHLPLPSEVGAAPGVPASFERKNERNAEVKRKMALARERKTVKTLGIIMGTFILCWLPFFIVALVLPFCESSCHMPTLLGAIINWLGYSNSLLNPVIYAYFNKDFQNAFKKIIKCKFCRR
Description: antagonism of 8-hydroxy-2-(di-n-propylamino)tetralin in the guinea-pig ileum in vitro. The class given is biochemical.

Each structure is given as a SMILES string.

The IC50 is the point on the concentration scale where inhibition reaches its midpoint. Read a high IC50 as weaker potency in that assay. Take `CCCN(CC1COc2ccccc2O1)C1CCc2cccnc2C1` (stereo not drawn) [Example 15]: the IC50 at 5-HT1A receptor amounted to 42 nM.

Turning to `CN(C)C1CCc2cccnc2C1` (stereo not drawn) [Example 3, 5,6,7,8-Tetrahydro-7-dimethylaminoquinoline], at 5-HT1A receptor, the half-maximal inhibitory concentration (IC50) is 137 nM.

As usually defined, the ED50 is the dose that gives a 50% effect, or the effect in half of the subjects. As to `CCCN(CCNC(=O)c1ccc(F)cc1)C1CCc2cccnc2C1` (stereo not drawn) [Example 19, 4-Fluoro-N-[2-[N --(5,6,7,8-tetrahydroquinoin-7 yl)-N'-propyl]aminoethyl}benzamide], the IC50 at 5-HT1A receptor came to 9 nM. For the same molecule, the ED50 on 5-HT1 receptor is 0.52 mg/kg.

Turning to `CN(CCNC(=O)Cc1c(F)cccc1F)C1CCc2cccnc2C1` (stereo not drawn) [Example 35, N-{2-[N'-(5,6,7,8-Tetrahydroquinolin-7 yl)-N'-methyl]aminoethyl}-2,6-difluorophenylacetamide], at 5-HT1A receptor, the IC50 is 131 nM. That is a sub-micromolar value.

Molecule `c1cnc2c(c1)CCC(N1CCCC1)C2` (stereo not drawn) [Example 38, 5,6,7,8-Tetrahydro 7-pyrrolidinoquinoline] displayed an IC50 on 5-HT1A receptor of 55 nM. Besides, the ED50 on 5-HT1 receptor is 0.57 mg/kg.

As a reminder, the pA2 is the negative logarithm of the molar antagonist concentration that doubles the agonist concentration needed for the same response. A low value points to a weaker antagonist. On to `CN(CCCCN1C(=O)CC2(CCCC2)CC1=O)C1CCc2cccnc2C1` (stereo not drawn) [Example 16, 8-{4-[N-(5,6,7,8-Tetrahydroquinolin-7 yl) N-methyl]aminobutyl}-8-azaspiro[4.5]decan 7,9-dione], for which, at 5-HT1A receptor, the IC50 came out at 26 nM. In addition, the pA2 on 5HT1A receptor is given as 7.7. Moreover, the ED50 at 5-HT1 receptor is 0.81 mg/kg.

In the case of `CCCN(CCC)C1CCc2cccnc2C1` (stereo not drawn) [Example 12, 5,6,7,8-Tetrahydro-7--(1,1-dipropylamino)quinoline], at 5-HT1A receptor, the IC50 is 138 nM. Also, the ED50 on 5-HT1 receptor is 0.62 mg/kg.

Molecule `c1cnc2c(c1)CCC(N1CCC1)C2` (stereo not drawn) [Example 50, 7-Azetidino-5,6,7,8-tetrahydroquinoline] came in with an IC50 at 5-HT1A receptor of 136 nM. Moreover, the ED50 on 5-HT1 receptor was 1.1 mg/kg.

Consider `CN(CCC1COc2ccccc2O1)C1CCc2cccnc2C1` (stereo not drawn) [Example 20, 7-Amino-5,6,7,8-tetrahydro N-{2 [2 (2,3 dihydro-1,4-benzodioxinyl)]ethyl}-N-methylquinoline], for which the IC50 on 5-HT1A receptor was found to be 68 nM.
